Assay results published in PMC6407917, “Identification of GSK3186899/DDD853651 as a Preclinical Development Candidate for the Treatment of Visceral Leishmaniasis” (Journal of Medicinal Chemistry, 2018).

Assays:
Experiment in all cases: biochemical
Design in all cases: species or system HEK293/K-562/placenta mixed human extract; Kinobeads chemoproteomic competition binding, quantified by TMT LC-MS/MS, dose response up to 20 uM
[1] = target: AAK1 (Homo sapiens, UniProt Q2M2I8)
[2] = target: AURKA (Homo sapiens, UniProt O14965)
[3] = target: BUB1 (Homo sapiens, UniProt O43683)
[4] = target: CDC42BPB (Homo sapiens, UniProt Q9Y5S2)
[5] = target: CSNK2B (Homo sapiens, UniProt P67870)
[6] = target: FER (Homo sapiens, UniProt P16591)
[7] = target: IKBKE (Homo sapiens, UniProt Q14164)
[8] = target: IRAK4 (Homo sapiens, UniProt Q9NWZ3)
[9] = target: JAK2 (Homo sapiens, UniProt O60674)
[10] = target: LATS1 (Homo sapiens, UniProt O95835)
[11] = target: MAP4K2 (Homo sapiens, UniProt Q12851)
[12] = target: MAP4K4 (Homo sapiens, UniProt O95819)
[13] = target: MET (Homo sapiens, UniProt P08581)
[14] = target: NEK2 (Homo sapiens, UniProt P51955)
[15] = target: NTRK1 (Homo sapiens, UniProt P04629)
[16] = target: PIP4K2B (Homo sapiens, UniProt P78356)
[17] = target: PTK2B (Homo sapiens, UniProt Q14289)
[18] = target: TAOK3 (Homo sapiens, UniProt Q9H2K8)
[19] = target: TEK (Homo sapiens, UniProt Q02763)
[20] = target: TESK1 (Homo sapiens, UniProt Q15569)
[21] = target: TTK (Homo sapiens, UniProt P33981)

Measured: IC50

MAP4K2, sequence (Q12851 whole entry): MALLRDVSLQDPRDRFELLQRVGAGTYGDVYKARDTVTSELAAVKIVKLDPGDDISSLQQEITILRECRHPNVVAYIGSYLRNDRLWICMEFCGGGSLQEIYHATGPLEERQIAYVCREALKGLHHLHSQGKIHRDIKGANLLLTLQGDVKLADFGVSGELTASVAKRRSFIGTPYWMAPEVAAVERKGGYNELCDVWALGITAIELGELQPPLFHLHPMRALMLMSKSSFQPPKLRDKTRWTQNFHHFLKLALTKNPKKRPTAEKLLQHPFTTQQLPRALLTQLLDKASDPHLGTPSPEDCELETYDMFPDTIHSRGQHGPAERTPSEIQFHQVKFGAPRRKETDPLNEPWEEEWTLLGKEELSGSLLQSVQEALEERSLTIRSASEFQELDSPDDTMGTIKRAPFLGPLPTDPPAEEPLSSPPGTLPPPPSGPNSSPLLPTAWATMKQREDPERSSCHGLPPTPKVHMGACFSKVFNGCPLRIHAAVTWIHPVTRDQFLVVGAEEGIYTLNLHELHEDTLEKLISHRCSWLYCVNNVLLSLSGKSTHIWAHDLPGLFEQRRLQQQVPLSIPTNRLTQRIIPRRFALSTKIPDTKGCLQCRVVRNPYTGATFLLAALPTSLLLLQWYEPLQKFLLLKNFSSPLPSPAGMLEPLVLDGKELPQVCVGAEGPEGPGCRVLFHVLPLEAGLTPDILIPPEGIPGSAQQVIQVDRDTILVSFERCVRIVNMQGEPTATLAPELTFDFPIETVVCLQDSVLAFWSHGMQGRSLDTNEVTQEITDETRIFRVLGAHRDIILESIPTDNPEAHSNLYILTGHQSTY
TESK1, sequence (Q15569 whole entry): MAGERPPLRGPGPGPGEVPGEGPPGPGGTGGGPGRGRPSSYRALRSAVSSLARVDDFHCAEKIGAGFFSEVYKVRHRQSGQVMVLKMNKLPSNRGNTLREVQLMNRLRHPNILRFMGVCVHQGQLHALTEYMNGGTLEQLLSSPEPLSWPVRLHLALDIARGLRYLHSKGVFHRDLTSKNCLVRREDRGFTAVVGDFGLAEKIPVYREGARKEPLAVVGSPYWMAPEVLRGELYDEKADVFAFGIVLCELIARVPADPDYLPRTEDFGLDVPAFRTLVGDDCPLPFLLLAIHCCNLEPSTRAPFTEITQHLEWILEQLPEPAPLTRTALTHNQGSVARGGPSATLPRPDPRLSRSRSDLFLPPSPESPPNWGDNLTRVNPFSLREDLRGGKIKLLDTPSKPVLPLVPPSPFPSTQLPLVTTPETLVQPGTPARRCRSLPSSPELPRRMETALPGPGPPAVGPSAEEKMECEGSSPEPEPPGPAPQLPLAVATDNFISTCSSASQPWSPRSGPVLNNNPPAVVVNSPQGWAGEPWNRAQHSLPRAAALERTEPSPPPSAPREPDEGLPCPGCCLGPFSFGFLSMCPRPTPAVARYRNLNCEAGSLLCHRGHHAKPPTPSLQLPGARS
TAOK3, sequence (Q9H2K8 whole entry): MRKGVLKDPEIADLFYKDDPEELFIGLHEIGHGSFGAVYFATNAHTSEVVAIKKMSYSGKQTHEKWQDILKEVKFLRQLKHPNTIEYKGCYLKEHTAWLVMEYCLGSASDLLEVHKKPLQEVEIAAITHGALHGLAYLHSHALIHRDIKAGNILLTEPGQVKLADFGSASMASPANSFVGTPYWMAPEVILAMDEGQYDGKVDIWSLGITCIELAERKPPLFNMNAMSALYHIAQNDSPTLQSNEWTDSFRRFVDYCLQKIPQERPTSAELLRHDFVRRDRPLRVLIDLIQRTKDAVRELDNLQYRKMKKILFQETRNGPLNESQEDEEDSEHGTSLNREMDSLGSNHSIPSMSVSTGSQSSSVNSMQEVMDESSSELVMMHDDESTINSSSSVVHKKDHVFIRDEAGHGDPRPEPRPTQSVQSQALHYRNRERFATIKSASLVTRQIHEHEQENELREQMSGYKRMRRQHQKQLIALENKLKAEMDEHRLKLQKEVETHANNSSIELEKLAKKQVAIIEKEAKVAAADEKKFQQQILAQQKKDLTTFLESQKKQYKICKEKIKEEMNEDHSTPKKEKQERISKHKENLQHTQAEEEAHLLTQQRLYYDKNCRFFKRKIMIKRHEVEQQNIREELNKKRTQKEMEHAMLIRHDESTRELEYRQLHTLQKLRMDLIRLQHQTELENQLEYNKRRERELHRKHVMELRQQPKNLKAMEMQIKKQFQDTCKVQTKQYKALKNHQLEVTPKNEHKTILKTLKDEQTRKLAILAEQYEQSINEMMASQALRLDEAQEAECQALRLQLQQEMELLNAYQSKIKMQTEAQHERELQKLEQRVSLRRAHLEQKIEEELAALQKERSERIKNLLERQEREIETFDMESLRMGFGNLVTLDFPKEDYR
TTK, sequence (P33981 whole entry): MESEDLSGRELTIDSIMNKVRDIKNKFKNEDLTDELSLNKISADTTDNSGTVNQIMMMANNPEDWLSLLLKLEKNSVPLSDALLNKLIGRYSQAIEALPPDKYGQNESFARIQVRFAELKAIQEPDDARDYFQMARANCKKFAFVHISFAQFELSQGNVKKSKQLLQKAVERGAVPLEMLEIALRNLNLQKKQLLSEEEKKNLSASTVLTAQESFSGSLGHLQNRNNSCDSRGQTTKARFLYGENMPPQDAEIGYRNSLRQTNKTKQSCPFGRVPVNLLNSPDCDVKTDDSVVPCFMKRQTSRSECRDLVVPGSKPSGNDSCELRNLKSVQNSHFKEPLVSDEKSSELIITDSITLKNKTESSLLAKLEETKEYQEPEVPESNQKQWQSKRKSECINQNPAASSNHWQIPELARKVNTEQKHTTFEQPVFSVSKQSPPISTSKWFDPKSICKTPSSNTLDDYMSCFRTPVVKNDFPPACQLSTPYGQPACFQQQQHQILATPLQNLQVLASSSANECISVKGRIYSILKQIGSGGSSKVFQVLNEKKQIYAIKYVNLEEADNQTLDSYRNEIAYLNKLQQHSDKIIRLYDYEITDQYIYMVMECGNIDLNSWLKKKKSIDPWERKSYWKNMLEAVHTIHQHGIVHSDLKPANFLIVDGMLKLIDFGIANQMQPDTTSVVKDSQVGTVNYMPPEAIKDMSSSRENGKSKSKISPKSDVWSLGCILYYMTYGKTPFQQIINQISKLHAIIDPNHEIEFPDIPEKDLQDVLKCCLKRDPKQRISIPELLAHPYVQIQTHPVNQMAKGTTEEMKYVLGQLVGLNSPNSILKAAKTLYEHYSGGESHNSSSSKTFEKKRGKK
IRAK4, sequence (Q9NWZ3 whole entry): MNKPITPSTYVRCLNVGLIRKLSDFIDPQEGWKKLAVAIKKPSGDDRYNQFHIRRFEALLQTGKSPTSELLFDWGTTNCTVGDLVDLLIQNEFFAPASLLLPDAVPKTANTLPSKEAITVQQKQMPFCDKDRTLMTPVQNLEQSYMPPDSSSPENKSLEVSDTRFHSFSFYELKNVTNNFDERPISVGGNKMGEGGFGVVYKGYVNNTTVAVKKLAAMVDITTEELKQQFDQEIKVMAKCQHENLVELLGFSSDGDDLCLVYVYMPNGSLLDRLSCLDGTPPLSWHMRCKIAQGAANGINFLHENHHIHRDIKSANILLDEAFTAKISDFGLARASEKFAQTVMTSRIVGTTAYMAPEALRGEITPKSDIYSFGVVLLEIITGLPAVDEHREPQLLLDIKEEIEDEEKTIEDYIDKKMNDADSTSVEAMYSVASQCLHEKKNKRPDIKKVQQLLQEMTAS
LATS1, sequence (O95835 whole entry): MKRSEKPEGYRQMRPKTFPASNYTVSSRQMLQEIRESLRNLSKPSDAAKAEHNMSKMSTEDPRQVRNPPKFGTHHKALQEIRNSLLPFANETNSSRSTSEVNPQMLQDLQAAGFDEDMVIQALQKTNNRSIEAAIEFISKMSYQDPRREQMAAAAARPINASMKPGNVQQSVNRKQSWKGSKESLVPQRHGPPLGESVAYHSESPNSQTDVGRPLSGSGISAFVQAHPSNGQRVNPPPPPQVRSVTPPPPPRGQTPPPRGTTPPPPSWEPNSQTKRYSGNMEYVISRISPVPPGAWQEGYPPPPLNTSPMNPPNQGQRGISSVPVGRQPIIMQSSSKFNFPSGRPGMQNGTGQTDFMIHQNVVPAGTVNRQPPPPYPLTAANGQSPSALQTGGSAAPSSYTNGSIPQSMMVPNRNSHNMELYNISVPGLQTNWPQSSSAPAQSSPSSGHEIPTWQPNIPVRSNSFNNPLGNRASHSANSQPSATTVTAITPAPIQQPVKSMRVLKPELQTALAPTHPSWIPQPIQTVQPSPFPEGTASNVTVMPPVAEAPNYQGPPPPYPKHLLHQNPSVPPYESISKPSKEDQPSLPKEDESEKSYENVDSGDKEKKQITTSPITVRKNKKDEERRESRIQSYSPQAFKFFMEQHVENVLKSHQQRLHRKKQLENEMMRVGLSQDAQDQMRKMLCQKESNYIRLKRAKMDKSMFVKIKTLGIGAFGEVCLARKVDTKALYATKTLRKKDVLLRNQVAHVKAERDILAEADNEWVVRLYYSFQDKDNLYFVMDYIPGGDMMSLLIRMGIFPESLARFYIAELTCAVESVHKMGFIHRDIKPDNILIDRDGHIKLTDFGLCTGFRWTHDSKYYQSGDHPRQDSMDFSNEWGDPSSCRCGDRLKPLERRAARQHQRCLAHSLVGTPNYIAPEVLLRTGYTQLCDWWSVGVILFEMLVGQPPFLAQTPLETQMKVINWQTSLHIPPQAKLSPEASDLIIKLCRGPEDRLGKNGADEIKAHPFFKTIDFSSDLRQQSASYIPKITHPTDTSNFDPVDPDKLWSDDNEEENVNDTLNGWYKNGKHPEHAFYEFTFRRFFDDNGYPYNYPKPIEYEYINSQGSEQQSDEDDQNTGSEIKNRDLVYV
CSNK2B, sequence (P67870 whole entry): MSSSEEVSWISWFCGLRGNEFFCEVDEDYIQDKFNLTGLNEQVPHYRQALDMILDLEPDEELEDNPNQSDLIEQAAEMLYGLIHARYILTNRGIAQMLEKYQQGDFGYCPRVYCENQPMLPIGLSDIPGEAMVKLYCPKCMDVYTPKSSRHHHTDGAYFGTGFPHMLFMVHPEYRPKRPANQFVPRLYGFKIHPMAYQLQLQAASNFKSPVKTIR

COc1nc(N[C@H]2CC[C@H](NS(=O)(=O)CC(C)C)CC2)nc2[nH]nc(N3CCOC[C@H]3C)c12 [compound 39, N-(trans-4-((4-Methoxy-3-((R)-3-methylmorpholino)-1H-pyrazolo[3,4-d]pyrimidin-6-yl)amino)cyclohexyl)-2-methylpropane-1-sulfonamide]
≥ 20 µM: all assays above
